Experimental findings from patent US20150239864A1, “3H-1,2-DITHIOCYCLOPENTENE-3-THIOKETONE COMPOUNDS AND APPLICATION THEREOF” (Soochow University, priority 2012, published 2015) are described below.

In test [1] the test system is HT22 cells. Put plainly: Glutamate-induced neural oxidative stress injury model in HT22 cells, survival by MTT. The test is classed as cell-based, Mouse. As to conditions: 5 mM glutamate added with compound at 1, 10, 50 or 100 μM, MTT after 24 h. As for the experimental part:
Mouse Hippocampal neuron cell line HT22, 24-well culture plate (Corning), glutamic acid (Glutamate, Sigma), DMEM culture medium (GIBCO), fetal bovine serum (GIBCO), 3-(4,5-dimethylthiazol-2-yl)-2,5-diphenyltetrazolium bromide (MTT, Sigma), dimethyl sulfoxide (Sinopharm Group. Co. Ltd.), and microplate reader (TECAN).
2.1. Cell culture: HT22 cells were taken out of the liquid nitrogen container, and thawed quickly in a water-bath at 37° C. After that, the outside wall of cryopreservation tube was disinfected by alcohol wipes, and it was then placed in a clean bench. The cells were transferred to a centrifuge tube containing 10 ml medium and centrifuged at 1000 rpm for 3 min. After centrifugation, the supernatant was discarded, and 10 mL DMEM containing 10% FBS was added to the centrifuge tube. The mixture was vigorously pipetted to prepare a cell suspension. The cell suspension was inoculated to a 100×20 mm Petri dish. Cells were cultured at 37° C. and 5% CO2. When the cell density reached confluent, the cells were digested and seeded onto the wells of a 24-well plate at the density of 2×10^4/well.
2.2. Treatment and groups: after the cells were cultured in the 24-well plate for 24 hours, 5 mM glutamate was added together with the compound each synthesized in Example 1-10 or Example 13 at a final concentration of 1, 10, 50, or 100 μM. DMSO served as vehicle and was added to the cells of the control group at an equal volume. The viability of the cells was detected by MTT method 24 h after the treatment.
2.3. Detection by MTT: 50 μL, 0.5 mg/ml MTT was added to each well 24 h after the treatment of cells. The cells were further incubated at 37° C. and 5% CO2 for 4 h. Subsequently, the supernatant was discarded. The cells were lysed by adding 500 μL dimethyl sulfoxide (DMSO). The absorbance was detected at 570 nm by a microplate reader, which is positively correlated with survival rate of cells. The survival rate of the cells in the treatment groups was expressed as the percent of the survival rate of the cells without glutamate treatment. All data were expressed as mean±standard deviation (SD). Statistical analysis was carried out for all data using SPSS 17.0. The difference between the groups was tested by one way anova. P<0.01 was considered as very significant difference.

Test [2] has as its system microglia cell line BV2. Put plainly: LPS-induced inflammatory response of microglia, nitrite by Griess reagent. The test is classed as cell-based. As to conditions: 200 ng/mL LPS, 24 h, compound at 10-100 μM, vs LPS alone, p<0.01. As for the experimental part:
Brain microglia cell line BV-2, 96-well culture plate (Corning, USA), DMEM medium (Hyclone, USA), fetal bovine serum (FBS) (GIBCO, USA), dimethyl sulfoxide (DMSO) (SIGMA, USA), Griess reagent (SIGMA, USA), sodium nitrite (ChemNet, China), microplate reader (BIO-RAD, USA)
2.1. Cell cultures: After taken out of the liquid nitrogen container, BV-2 cells were quickly placed in warm water at 37° C. and gently shaken for thawing. Subsequently, it was centrifuged at 1000 rpm for 3 min, and the supernatant was discarded. […] When 60%-70% of confluence of the passaged cells was achieved, the cells were harvested by centrifugation at 1000 rpm for 3 min. The cells were then stained by trypan blue and counted under a microscope by globulimeter. After cell counting, it was diluted into a suspension containing 150 to 200 thousand of cells/ml, which was then plated in the 96-well plate (15 to 20 thousand of […]).
2.2. Treatment and groups: after the cells were cultured in the […] for 24 h, 200 ng/mL LPS was added together with compound YC1-1 of Example 1, YC1-8 of Example 8 and YC2-2 of Example 12 at a final concentration of 1, 10, 50, or 100 μM. DMSO served as vehicle and was added to the cells of control group at the equal volume. The cells were further incubated in an incubator.
2.3. The amount of nitrite produced was detected 24 h after the atreatment, to characterize the inflammatory response of BV2 cells induced by LPS and the inhibitory effect of compound YC1-1 of Example 1 and compound YC1-8 of Example 8 on the LPS-induced inflammatory response.
Detection method of nitrite: […], supernatant was taken out of the wells of 96-well plate, and added to the corresponding wells of another clean 96-well plate. Subsequently, 50 μL Griess reagent was added to each well, and the OD value was detected at 570 nm. The amount of nitrite was calculated based on the standard curve. The result was expressed as the relative yield of nitrite, wherein the relative yield of the control group treated only by LPS was designated as 1. All data were expressed as mean±standard deviation (SD). […]
(In general: Griess reagent forms a coloured azo dye with nitrite.)

For test [3], the system named is mouse middle cerebral artery occlusion model. Put plainly: Mouse middle cerebral artery occlusion (MCAO) model, infarct volume by TTC staining. The test is classed as in vivo. As to conditions: half at 3 h and half at 10 h of reperfusion, 24 h after MCAO, vs vehicle, p<0.05. As for the experimental part:
Male ICR mice (body weight of 30±2.0 g) were purchased from Shanghai Laboratory Animal Center, Chinese Academy of Sciences. The mice were raised at room temperature and 12 h cycle of light and dark, with free access to food and water.
2.1. Middle cerebral artery occlusion (MCAO) model: the middle cerebral artery occlusion (MCAO) model was performed by reference to Longa's method or other modified suture-occluded method. The specific experimental procedures were as follows: after anaesthetized by isoflurane, the mouse was fixed in supine position, and the skin of neck and head was sterilized using iodine. The probe of laser-Doppler blood flowmeter was fixed at the midpoint of the line between the ear and the eye on the right side of the mouse to monitor the real-time perfusion in the cerebral cortex. A 1.5 cm incision was made in the middle of the neck to expose common carotid artery on the right side. Tissues were separated under an operating microscope layer by layer. The common carotid artery was first separated which was temporarily ligated 0.5 cm away from the distal end using 5-0 suture. Then, the external carotid artery and internal carotid artery on the right side were subsequently separated and the external carotid artery was ligated 0.5 cm away from the distal end using 5-0 suture. At the same time, the internal carotid artery was temporarily clamped using a mini vascular clamp. Subsequently, a small incision was made by an ophthalmic scissor on the inner side of the ligation at the distal end of the external carotid artery. To occlude the […], one of the ends of the suture was slightly enlarged by heating, coated by silica gel, and sterilized using alcohol. The length of the suture was about 2 cm, and the diameter of the enlarged end was […]. The suture was held using a fine forceps and inserted into the incision on the external carotid artery.). Once the suture passed through the incision of the external carotid artery, the ligation was lifted at the distal end of external carotid artery until the enlarged end of the suture entered the bifurcation of the […]. The suture was then tightened, and the vascular clamp on the internal carotid artery was opened. […] The starting time for occlusion was recorded. For reperfusion, the suture was withdrawn 60 min after middle cerebral artery occlusion. The rectal temperature was maintained at 37.0±0.5° C. by a heating blanket during and after the surgery, until the animal was revived.
2.2 Animal groups and drug administration: the animals were randomly divided into 3 groups, including control group treated with vehicle, YC1-8 group (100 mg/kg) and YC1-8 group (50 mg/kg). There were 8 mice in each group. 12 mg YC1-8 was initially dissolved by 80 μL DMSO, and then diluted by 920 μL corn oil to prepare a solution with the final concentration of 12 mg/mL. One half of dosage of compound YC1-8 was initially administrated at 3 h of reperfusion after ischemia by intraperitoneal injection, while the other half of dosage was administrated at 10 h of reperfusion after ischemia. For the control group, the same volume of DMSO-containing corn oil was administrated to the mice at 3 h and 10 h.
2.3. Detection of the cerebral infarct volumes: 24 h after reperfusion following mouse middle cerebral artery occlusion (MCAO), the mice were sacrificed under anesthetized and the brain was collected. After the brain tissue was stripped off, the olfactory bulb and cerebellum were removed. A series of 5 coronary sections of brain were made at an interval of 1 mm, which were then placed in 2% TTC solution at 37° C. under darkness in a warm bath. The sections were turned over every 15 min, with a total duration of 30 min. The size of cerebral infarction was determined by TTC staining method. Due to the reduction of TTC by […] in mitochondrion, normal brain tissue was red, and the ischemic infarct area was white. […]

For the molecule `Oc1ccc(-c2cc(=S)ss2)cc1` [YC1-1, 5-p-hydroxyphenyl-3H-1,2-dithiacyclopentene-3-thione], in test [1], the “Concentration range for protection” value is 10 to 100 µM. The “LPS induced inflammatory response of BV2 cells (nitrite production)” value (from here on “LPS induced inflammatory response”) in test [2] is reported as “significantly inhibited”.
For the molecule `Fc1ccc(-c2cc(=S)ss2)cc1` [YC1-2, 5-p-fluorophenyl-3H-1,2-dithiacyclopentene-3-thione], the “Concentration range for protection” value in test [1] lay in the range of 10 to 100 µM.
With `S=c1cc(-c2cccs2)ss1` [YC1-3, 5-(2-thienyl)-3H-1,2-dithiacyclopentene-3-thione], in test [1], the “Concentration range for protection” value lay within 10 to 100 µM.
Same read-out and setting: under `Cc1ccc(-c2cc(=S)ss2)cc1` [YC1-4, 5-p-methylphenyl-3H-1,2-dithiacyclopentene-3-thione] stands 10 to 100 µM; under `Fc1cc(-c2cc(=S)ss2)c(Cl)cc1Cl` [YC1-5, 5-(2,4-dichloro-5-fluorophenyl)-3H-1,2-dithiacyclopentene-3-thione], 1 to 100 µM; under `S=c1cc(-c2ccc3c(c2)OCO3)ss1` [YC1-6, 5-(3,4-methylenedioxyphenyl)-3H-1,2-dithiacyclopentene-3-thione], 1 to 100 µM.
For `COc1ccc(-c2cc(=S)ss2)c(OC)c1` [YC1-7, 5-(2,4-dimethoxyphenyl)-3H-1,2-dithiacyclopentene-3-thione], the “Concentration range for protection” value in test [1] fell in the range of 1 to 100 µM.
Consider `COc1ccc(-c2cc(=S)ss2)cc1` [YC1-8, 5-p-methoxyphenyl-3H-1,2-dithiacyclopentene-3-thione], for which the “Concentration range for protection” value in test [1] was in the range of 10 to 100 µM. For the same molecule, the “LPS induced inflammatory response” value in test [2] was “significantly inhibited”. In addition, in test [3] (50 mg/kg YC1-8 i.p.), the “infarction volume in cerebral cortex” value is on record as “significantly reduced”, the “infarction volume in hemisphere” value is “significantly reduced” and the “infarction volume in striatum” value was “significantly reduced”. Moreover, in test [3] (100 mg/kg YC1-8 i.p.), the “infarction volume in cerebral cortex” value is “significantly reduced”, the “infarction volume in hemisphere” value was “significantly reduced” and the “infarction volume in striatum” value is “significantly reduced”.
Turning to `S=c1cc(-c2ccccc2)ss1` [YC1-9, 5-phenyl-3H-1,2-dithiacyclopentene-3-thione], in test [1], the “Concentration range for protection” value was in the range of 1 to 100 µM.
The same measure, in the same setting: the figure for `S=c1cc(-c2ccc3ccccc3c2)ss1` [YC1-10, 5-(2-naphthyl)-3H-1,2-dithiacyclopentene-3-thione] is 1 to 100 µM.
In the case of `CC(=O)Oc1ccccc1C(=O)Oc1ccc(-c2cc(=S)ss2)cc1` [YC2-2, 4-(3H-1,2-dithio-3-thioketone-5-yl)phenyl 2-acetoxy benzoate], in test [2], the “LPS induced inflammatory response” value is “significantly inhibited”.
As for `O=C(Oc1ccc(-c2cc(=S)ss2)cc1)c1cccnc1` [YC2-3, 4-(3H-1,2-dithio-3-thioketone-5-yl)phenyl pyridine-3-carboxylate], the “Concentration range for protection” value in test [1] fell in the range of 50 to 100 µM.
